Test results published in PubChem BioAssay AID1259411 (Chemical Carcinogenesis Research Information System (CCRIS), 2018).
Calls of active or inactive are those of the source. No rule for the calls is given here.

Test system: rodent carcinogenicity bioassays, tumor incidence
Assay: CCRIS carcinogenicity studies
Conditions: Dose: 0, Dose: 0
Procedure, shortened: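 NCI-built, expert-reviewed records of carcinogenicity and related test outcomes (mutagenicity, tumor promotion/inhibition) compiled from published and report sources, historical span 1985-2011, not updated.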

**Q.** Which results are given for `CC(I)C1OCC(CO)O1` (centres undefined)?
**A.** carcinogen call (Species: MOUSE, Strain/Sex: B6C3F1/FEMALE, Route: GAVAGE, 62, 125 MG/KG IN WATER 5 D/WK FOR 103 WK (STUDY DURATION: 106 WK), 62, 125 MG/KG IN WATER 5 D/WK FOR 103 WK (STUDY DURATION: 106 WK), Tumor Site: Type of Lesion: FORESTOMACH: SQUAMOUS CELL PAPILLOMA, ANTERIOR PITUTARY GLAND: ADENOMA, HARDERIAN GLAND: ADENOMA, ADENOMA OR CARCINOMA, Tumor Site: Type of Lesion: FORESTOMACH: SQUAMOUS CELL PAPILLOMA, ANTERIOR PITUTARY GLAND: ADENOMA, HARDERIAN GLAND: ADENOMA, ADENOMA OR CARCINOMA): active; positive; carcinogen call (Species: MOUSE, Strain/Sex: B6C3F1/MALE, Route: GAVAGE, 125, 250 MG/KG IN WATER 5 D/WK FOR 103 WK (STUDY DURATION: 106 WK), 125, 250 MG/KG IN WATER 5 D/WK FOR 103 WK (STUDY DURATION: 106 WK)): inactive; negative; carcinogen call (Species: RAT, Strain/Sex: F344/FEMALE, Route: GAVAGE, 62, 125 MG/KG IN WATER 5 D/WK FOR 103 WK (STUDY DURATION: 105 WK), 62, 125 MG/KG IN WATER 5 D/WK FOR 103 WK (STUDY DURATION: 105 WK)): inactive; negative; carcinogen call (Species: RAT, Strain/Sex: F344/MALE, Route: GAVAGE, 125, 250 MG/KG IN WATER 5 D/WK FOR 103 WK (STUDY DURATION: 105 WK), 125, 250 MG/KG IN WATER 5 D/WK FOR 103 WK (STUDY DURATION: 105 WK), Tumor Site: Type of Lesion: HEMATOPOIETIC SYSTEM: MONONUCLEAR CELL LEUKEMIA, THYROID GLAND: FOLLICULAR CELL CARCINOMA): active; positive

**Q.** `CC(CCC(=O)N(CC(=O)O)N=O)C1CCC2C3C(O)CC4C[C@H](O)CCC4(C)C3C[C@H](O)C12C` (some centres undefined) was tested. Which carcinogen call (Species: RAT, Strain/Sex: F344/MALE, Route: GAVAGE, 10 MG IN 50 µL DMSO 5 D/WK FOR 6 WK (STUDY DURATION: 108 WK), Tumor Site: Type of Lesion: LIVER: CARCINOMA) did it give?
**A.** The carcinogen call was “active; positive”.

**Q.** `Cc1ccc(N)cc1N` was tested. Which carcinogen call (Species: MOUSE, Strain/Sex: B6C3F1/FEMALE, Route: ORAL, 100, 200 PPM IN DIET FOR 101 WK, 100, 200 PPM IN DIET FOR 101 WK, Tumor Site: Type of Lesion: HEMATOPOIETIC SYSTEM (LEUKEMIA), LYMPHATIC SYSTEM: LYMPHOMA, LIVER: HEPATOCELLULAR CARCINOMA, Tumor Site: Type of Lesion: HEMATOPOIETIC SYSTEM (LEUKEMIA), LYMPHATIC SYSTEM: LYMPHOMA, LIVER: HEPATOCELLULAR CARCINOMA) did it give?
**A.** Its carcinogen call is “active; positive”.

**Q.** And the carcinogen call (Species: MOUSE, Strain/Sex: B6C3F1/MALE, Route: ORAL, 100, 200 PPM IN DIET FOR 101 WK, 100, 200 PPM IN DIET FOR 101 WK)?
**A.** Its carcinogen call is “inactive; negative”.

**Q.** What about the carcinogen call (Species: RAT, Strain/Sex: F344/FEMALE, Route: ORAL, 79, 171 PPM TWA, IN DIET FOR 84-103 WK, 79, 171 PPM TWA, IN DIET FOR 84-103 WK, Tumor Site: Type of Lesion: INTEGUMENTARY SYSTEM (SUBCUTANEOUS TISSUE): FIBROMA, FIBROSARCOMA, LIVER: HEPATOCELLULAR CARCINOMA OR NEOPLASTIC NODULE;, Tumor Site: Type of Lesion: INTEGUMENTARY SYSTEM (SUBCUTANEOUS TISSUE): FIBROMA, FIBROSARCOMA, LIVER: HEPATOCELLULAR CARCINOMA OR NEOPLASTIC NODULE) of the same compound?
**A.** The carcinogen call was “active; positive”.

**Q.** What about the carcinogen call (Species: RAT, Strain/Sex: F344/MALE, Route: ORAL, 79, 176 PPM TWA, IN DIET FOR 79-103 WK, 79, 176 PPM TWA, IN DIET FOR 79-103 WK, Tumor Site: Type of Lesion: INTEGUMENTARY SYSTEM (SUBCUTANEOUS TISSUE): SQUAMOUS CELL CARCINOMA, FIBROMA, LIPOMA, LIVER: HEPATOCELLULAR CARCINOMA OR) of the same compound?
**A.** The carcinogen call was “active; positive”.
